# Activity calls are given as the source filed them. The rule behind the calls is not given here.
# Columns and labels:
# HeLa [1] = assay: Growth inhibition of human HeLa cells at 10 uM after 72 hrs by MTT assay; format: functional; set-up: scale not given: the % may be the effect or the level left
# Nucleic Acid [2] = assay: Binding affinity to Escherichia coli pUC19 DNA assessed as form 2 DNA level at 0.463 mM by agarose gel electrophoresis; format: nucleic-acid assay
# Nucleic Acid [3] = assay: Binding affinity to Escherichia coli pUC19 DNA assessed as form 1 DNA level at 0.463 mM after 13.07 hrs by agarose gel electrophoresis; format: nucleic-acid assay
# Nucleic Acid [4] = assay: Binding affinity to Escherichia coli pUC19 DNA assessed as form 2 DNA level at 0.175 mM after 31.48 hrs by agarose gel electrophoresis; format: nucleic-acid assay
# Nucleic Acid [5] = assay: Binding affinity to Escherichia coli pUC19 DNA assessed as form 2 DNA level at 0.175 mM after 29.33 hrs by agarose gel electrophoresis; format: nucleic-acid assay
# Nucleic Acid [6] = assay: Binding affinity to Escherichia coli pUC19 DNA assessed as form 2 DNA level at 0.262 mM after 25.02 hrs by agarose gel electrophoresis; format: nucleic-acid assay
# Nucleic Acid [7] = assay: Binding affinity to Escherichia coli pUC19 DNA assessed as form 2 DNA level at 0.320 mM after 27.33 hrs by agarose gel electrophoresis; format: nucleic-acid assay
# Nucleic Acid [8] = assay: Binding affinity to Escherichia coli pUC19 DNA assessed as form 1 DNA level at 0.130 mM after 14 hrs by agarose gel electrophoresis; format: nucleic-acid assay
# Nucleic Acid [9] = assay: Binding affinity to Escherichia coli pUC19 DNA assessed as form 1 DNA level at 0.130 mM after 23.52 hrs by agarose gel electrophoresis; format: nucleic-acid assay
# Nucleic Acid [10] = assay: Binding affinity to Escherichia coli pUC19 DNA assessed as form 1 DNA level at 0.349 mM after 24.08 hrs by agarose gel electrophoresis; format: nucleic-acid assay
# Nucleic Acid [11] = assay: Binding affinity to Escherichia coli pUC19 DNA assessed as form 1 DNA level at 0.349 mM after 26.15 hrs by agarose gel electrophoresis; format: nucleic-acid assay
# Nucleic Acid [12] = assay: Binding affinity to Escherichia coli pUC19 DNA assessed as form 1 DNA level at 0.463 mM after 23.12 hrs by agarose gel electrophoresis; format: nucleic-acid assay
# Nucleic Acid [13] = assay: Binding affinity to Escherichia coli pUC19 DNA assessed as form 1 DNA level at 0.463 mM after 31.48 hrs by agarose gel electrophoresis; format: nucleic-acid assay
# Nucleic Acid [14] = assay: Binding affinity to Escherichia coli pUC19 DNA assessed as form 2 DNA level at 0.262 mM after 27.07 hrs by agarose gel electrophoresis; format: nucleic-acid assay
# Nucleic Acid [15] = assay: Binding affinity to Escherichia coli pUC19 DNA assessed as form 1 DNA level at 0.320 mM after 4.95 hrs by agarose gel electrophoresis; format: nucleic-acid assay
# Nucleic Acid [16] = assay: Binding affinity to Escherichia coli pUC19 DNA assessed as form 1 DNA level at 0.175 mM after 27.33 hrs by agarose gel electrophoresis; format: nucleic-acid assay
# Nucleic Acid [17] = assay: Binding affinity to Escherichia coli pUC19 DNA assessed as form 2 DNA level at 0.349 mM after 11.33 hrs by agarose gel electrophoresis; format: nucleic-acid assay
# Nucleic Acid [18] = assay: Binding affinity to Escherichia coli pUC19 DNA assessed as form 1 DNA level at 0.175 mM after 25.35 hrs by agarose gel electrophoresis; format: nucleic-acid assay
# Nucleic Acid [19] = assay: Binding affinity to Escherichia coli pUC19 DNA assessed as form 1 DNA level at 0.698 mM after 8.45 hrs by agarose gel electrophoresis; format: nucleic-acid assay
# Nucleic Acid [20] = assay: Binding affinity to Escherichia coli pUC19 DNA assessed as form 1 DNA level at 0.175 mM after 23.12 hrs by agarose gel electrophoresis; format: nucleic-acid assay
# Nucleic Acid [21] = assay: Binding affinity to Escherichia coli pUC19 DNA assessed as form 2 DNA level at 0.130 mM after 8.08 hrs by agarose gel electrophoresis; format: nucleic-acid assay
# Nucleic Acid [22] = assay: Binding affinity to Escherichia coli pUC19 DNA assessed as form 2 DNA level at 0.320 mM after 25.35 hrs by agarose gel electrophoresis; format: nucleic-acid assay
# Nucleic Acid [23] = assay: Binding affinity to Escherichia coli pUC19 DNA assessed as form 2 DNA level at 0.698 mM after 10.70 hrs by agarose gel electrophoresis; format: nucleic-acid assay
# Nucleic Acid [24] = assay: Binding affinity to Escherichia coli pUC19 DNA assessed as form 2 DNA level at 0.262 mM after 23.02 hrs by agarose gel electrophoresis; format: nucleic-acid assay
# HeLa [25] = assay: Growth inhibition of human HeLa cells at 1000 uM after 72 hrs by MTT assay; format: functional; set-up: scale not given: the % may be the effect or the level left
# Nucleic Acid [26] = assay: Binding affinity to Escherichia coli pUC19 DNA assessed as form 2 DNA level at 0.349 mM after 23.02 hrs by agarose gel electrophoresis; format: nucleic-acid assay
# Nucleic Acid [27] = assay: Binding affinity to Escherichia coli pUC19 DNA assessed as form 1 DNA level at 0.130 mM by agarose gel electrophoresis; format: nucleic-acid assay
# Nucleic Acid [28] = assay: Binding affinity to Escherichia coli pUC19 DNA assessed as form 1 DNA level at 0.698 mM after 6.42 hrs by agarose gel electrophoresis; format: nucleic-acid assay
# Nucleic Acid [29] = assay: Binding affinity to Escherichia coli pUC19 DNA assessed as form 1 DNA level at 0.463 mM after 9.07 hrs by agarose gel electrophoresis; format: nucleic-acid assay
# Nucleic Acid [30] = assay: Binding affinity to Escherichia coli pUC19 DNA assessed as form 2 DNA level at 0.262 mM after 26.15 hrs by agarose gel electrophoresis; format: nucleic-acid assay
# Nucleic Acid [31] = assay: Binding affinity to Escherichia coli pUC19 DNA assessed as form 2 DNA level at 0.175 mM after 23.12 hrs by agarose gel electrophoresis; format: nucleic-acid assay
# HeLa [32] = assay: Growth inhibition of human HeLa cells at 100 uM after 72 hrs by MTT assay; format: functional; set-up: scale not given: the % may be the effect or the level left
# Nucleic Acid [33] = assay: Binding affinity to Escherichia coli pUC19 DNA assessed as form 2 DNA level at 0.320 mM after 13.07 hrs by agarose gel electrophoresis; format: nucleic-acid assay
# HL-60 = assay: Growth inhibition of human HL60 cells at 100 uM after 72 hrs by MTT assay; format: functional; set-up: scale not given: the % may be the effect or the level left
# Nucleic Acid [34] = assay: Binding affinity to supercoiled Escherichia coli pUC19 DNA assessed as formation of nicked circular DNA at 1.10 mM at pH 6.0 for 24 hrs in presence of sodium azide by agarose gel electrophoresis; format: nucleic-acid assay
# Nucleic Acid [35] = assay: Binding affinity to Escherichia coli pUC19 DNA assessed as form 1 DNA level at 0.320 mM after 25.35 hrs by agarose gel electrophoresis; format: nucleic-acid assay
# Nucleic Acid [36] = assay: Binding affinity to Escherichia coli pUC19 DNA assessed as form 1 DNA level at 0.320 mM after 23.12 hrs by agarose gel electrophoresis; format: nucleic-acid assay
# Nucleic Acid [37] = assay: Binding affinity to Escherichia coli pUC19 DNA assessed as form 2 DNA level at 0.463 mM after 25.35 hrs by agarose gel electrophoresis; format: nucleic-acid assay
# Nucleic Acid [38] = assay: Binding affinity to Escherichia coli pUC19 DNA assessed as form 1 DNA level at 0.463 mM after 27.33 hrs by agarose gel electrophoresis; format: nucleic-acid assay
# Nucleic Acid [39] = assay: Binding affinity to Escherichia coli pUC19 DNA assessed as form 1 DNA level at 0.262 mM after 24.08 hrs by agarose gel electrophoresis; format: nucleic-acid assay
# Nucleic Acid [40] = assay: Binding affinity to Escherichia coli pUC19 DNA assessed as form 1 DNA level at 0.175 mM after 9.07 hrs by agarose gel electrophoresis; format: nucleic-acid assay
compound,measurement,setting,value
Cl.Cl.NNC1=NCC(O)CN1 (stereo unspecified),Activity,HeLa [1],0%
same,Activity,Nucleic Acid [2],3.75%
same,Activity,Nucleic Acid [3],77.5%
same,Activity,Nucleic Acid [4],26%
same,Activity,Nucleic Acid [5],23.7%
same,Activity,Nucleic Acid [6],11.9%
same,Activity,Nucleic Acid [7],67.8%
same,Activity,Nucleic Acid [8],75.5%
same,Activity,Nucleic Acid [9],74%
same,Activity,Nucleic Acid [10],71.9%
same,Activity,Nucleic Acid [11],68.5%
same,Activity,Nucleic Acid [12],62%
same,Activity,Nucleic Acid [13],51.1%
same,Activity,Nucleic Acid [14],15.3%
same,Activity,Nucleic Acid [15],94%
same,Activity,Nucleic Acid [16],76%
same,Activity,Nucleic Acid [17],9.09%
same,Activity,Nucleic Acid [18],78.9%
same,Activity,Nucleic Acid [19],84.8%
same,Activity,Nucleic Acid [20],80.8%
same,Activity,Nucleic Acid [21],16.2%
same,Activity,Nucleic Acid [22],69.8%
same,Activity,Nucleic Acid [23],21.8%
same,Activity,Nucleic Acid [24],9.9%
same,Activity,HeLa [25],0%
same,Activity,Nucleic Acid [26],27.7%
same,Activity,Nucleic Acid [27],88.6%
same,Activity,Nucleic Acid [28],86.6%
same,Activity,Nucleic Acid [29],83.3%
same,Activity,Nucleic Acid [30],13.7%
same,Activity,Nucleic Acid [31],19.2%
same,Activity,HeLa [32],0%
same,Activity,Nucleic Acid [33],87.8%
same,Activity,HL-60,70%
same,Activity,Nucleic Acid [34],inactive
same,Activity,Nucleic Acid [35],64%
same,Activity,Nucleic Acid [36],68%
same,Activity,Nucleic Acid [37],39.8%
same,Activity,Nucleic Acid [38],59.4%
same,Activity,Nucleic Acid [39],89.5%
same,Activity,Nucleic Acid [40],93.9%

# Reference: ChEMBL document CHEMBL1154064, “Synthesis and DNA cleavage activity of 2-hydrazinyl-1,4,5,6-tetrahydropyrimidine containing hydroxy group” (2009)
